Test results as given in US20240391936A1, “TETRAHYDROTHIENO PYRIDINE DERIVATIVES AS DDRS INHIBITORS” (CHIESI FARMACEUTICI S.P.A., priority 2021, published 2024).

Legend:
DDR1 [1] = biological target: T1, DDR1 (Homo sapiens, UniProt Q08345); test: DDR1 binding assay (LanthaScreen Europium Kinase Binding assay); set-up: purchased Carna Biosciences; settings: binding assay, 5 nM DDR1, 20 nM Kinase Tracer 178; Ki from IC50 by Cheng-Prusoff; read-out: Ki DDR1
Method in brief: (§1)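 Compounds incubated 1 h at room temperature with 5 nM kinase, Kinase Tracer 178 (20 nM for DDR1, 10 nM for DDR2) and 2 nM Eu-anti-GST antibody in pH 7.5 HEPES/MgCl2/EGTA/BRIJ35 buffer. TR-FRET 665/615 nm ratio read after 340 nm excitation; IC50 from 4-parameter fit, converted to Ki by Cheng-Prusoff.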

DDR2 [2] = biological target: T2, DDR2 (Homo sapiens, UniProt Q16832); test: DDR2 binding assay (LanthaScreen Europium Kinase Binding assay); set-up: purchased Life Technologies; settings: binding assay, 5 nM DDR2, 10 nM Kinase Tracer 178; Ki from IC50 by Cheng-Prusoff; read-out: Ki DDR2
T2 sequence (Q16832 22-855): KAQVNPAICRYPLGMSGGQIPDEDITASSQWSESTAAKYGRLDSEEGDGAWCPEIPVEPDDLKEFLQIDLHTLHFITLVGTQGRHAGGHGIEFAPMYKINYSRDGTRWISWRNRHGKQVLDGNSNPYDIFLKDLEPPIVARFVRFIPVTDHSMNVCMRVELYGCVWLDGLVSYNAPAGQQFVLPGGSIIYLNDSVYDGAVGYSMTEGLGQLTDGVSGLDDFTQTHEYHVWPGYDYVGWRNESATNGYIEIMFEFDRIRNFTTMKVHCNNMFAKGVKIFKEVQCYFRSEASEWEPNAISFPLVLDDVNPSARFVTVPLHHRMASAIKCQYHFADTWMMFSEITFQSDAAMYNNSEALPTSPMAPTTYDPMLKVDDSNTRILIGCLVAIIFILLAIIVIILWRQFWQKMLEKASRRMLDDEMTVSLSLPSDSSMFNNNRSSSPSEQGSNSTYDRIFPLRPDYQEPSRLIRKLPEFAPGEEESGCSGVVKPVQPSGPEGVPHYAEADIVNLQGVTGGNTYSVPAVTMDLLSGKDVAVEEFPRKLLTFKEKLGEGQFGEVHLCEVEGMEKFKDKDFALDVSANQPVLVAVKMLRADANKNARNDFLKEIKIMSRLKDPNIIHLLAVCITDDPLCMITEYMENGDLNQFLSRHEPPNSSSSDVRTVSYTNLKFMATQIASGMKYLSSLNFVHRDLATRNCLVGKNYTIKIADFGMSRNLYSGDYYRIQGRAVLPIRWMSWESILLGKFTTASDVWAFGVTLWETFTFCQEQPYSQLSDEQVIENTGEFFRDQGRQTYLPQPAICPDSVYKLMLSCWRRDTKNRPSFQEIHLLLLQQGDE
Method in brief: as §1

DDR1 [3] = biological target: T1, DDR1; test: DDR1 cell based assay (PathHunter U2OS DDR1 assay); set-up: host or cells: U2OS-DDR1 (PathHunter); settings: U2OS-DDR1 cells, bovine Type II Collagen 20 μg/ml
Method in brief: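 U2OS-DDR1 PathHunter cells preincubated 30 min with compound, then stimulated overnight at 37 °C with 20 μg/ml bovine type II collagen. Luminescent complementation signal read after 1 h detection at room temperature; normalized to vehicle (0%) and collagen-only (100%) controls, IC50 from variable-slope sigmoidal fit.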

DDR2 [4] = biological target: T2, DDR2; test: DDR2 cell based assay (phospho-ELISA in HEK293T-DDR2 recombinant cells); set-up: expressed in transfected cells; host or cells: HEK293T-DDR2 recombinant cells; settings: bovine Type II Collagen 50 μg/ml
Procedure: The inhibition of DDR2 phosphorylation by compounds was evaluated in HEK293T-DDR2 recombinant cells by phospho-ELISA assay. Briefly, HEK293T-DDR2 cells were seeded in poly-D-lysine-coated 24-well plates at a density of 250.000 cells/well and incubated for 1.5 hours at 37° C. and 5% CO2 in DMEM+10% FBS. After that, the medium was changed to serum-free DMEM and cells were incubated for 3 hours. Then. test compounds were added at different concentrations 30 minutes before stimulation with bovine Type II Collagen at 50 μg/ml for further 3 hours. For DDR2 phospho-ELISA assay (DuoSet IC Human Phospho-DDR2; R&D Systems), protein extracts were obtained by adding 60 μl/well of lysis buffer prepared according to the manufacturer's instructions. Protein concentration in the samples was determined by BCA assay and the levels of phospho-DDR2 were determined following R&D Systems indications. Raw data were normalized to maximal inhibition control (0% for normalization) and positive control (100% for normalization; cells treated with […] collagen II) and IC50 parameters were calculated in GraphPad Prism 8.0 software, using sigmoidal dose-response curve fitting with variable slope.

T1 sequence (Q08345 19-913): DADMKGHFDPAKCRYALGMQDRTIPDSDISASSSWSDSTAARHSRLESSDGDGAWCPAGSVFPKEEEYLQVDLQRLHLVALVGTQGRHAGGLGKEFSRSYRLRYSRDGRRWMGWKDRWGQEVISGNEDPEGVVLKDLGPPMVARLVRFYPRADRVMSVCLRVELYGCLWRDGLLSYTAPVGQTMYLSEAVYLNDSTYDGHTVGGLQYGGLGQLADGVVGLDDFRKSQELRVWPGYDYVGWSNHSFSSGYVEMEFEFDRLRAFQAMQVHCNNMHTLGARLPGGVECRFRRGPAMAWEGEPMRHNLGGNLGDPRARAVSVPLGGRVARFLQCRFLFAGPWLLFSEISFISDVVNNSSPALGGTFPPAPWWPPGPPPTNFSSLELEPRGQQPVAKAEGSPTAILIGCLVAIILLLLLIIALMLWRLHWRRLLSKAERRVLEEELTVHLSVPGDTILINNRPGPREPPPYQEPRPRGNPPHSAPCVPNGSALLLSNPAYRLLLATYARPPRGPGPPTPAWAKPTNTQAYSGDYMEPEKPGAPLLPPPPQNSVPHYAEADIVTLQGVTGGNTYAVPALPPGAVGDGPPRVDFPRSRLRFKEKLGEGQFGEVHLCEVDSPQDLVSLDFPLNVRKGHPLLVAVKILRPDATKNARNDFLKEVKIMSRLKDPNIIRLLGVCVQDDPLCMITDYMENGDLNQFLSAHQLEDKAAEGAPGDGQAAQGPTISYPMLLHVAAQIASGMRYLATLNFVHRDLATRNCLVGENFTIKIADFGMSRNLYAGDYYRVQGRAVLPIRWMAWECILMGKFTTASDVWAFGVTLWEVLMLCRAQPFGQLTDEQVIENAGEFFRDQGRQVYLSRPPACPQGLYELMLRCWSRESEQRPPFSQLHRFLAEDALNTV

Ki (DDR1 [1]) | Ki (DDR2 [2]) | IC50 (DDR1 [3]) | IC50 (DDR2 [4]) | Structure (SMILES)
< 25 nM | < 25 nM | < 25 nM | < 25 nM | Cn1nc(C(C)(C)C)cc1NC(=O)c1csc2c1CCN(C(=O)c1cnc3ccccn13)C2 [Example 3, N-(3-(tert-butyl)-1-methyl-1H-pyrazol-5-yl)-6-(imidazo[1,2-a]pyridine-3-carbonyl)-4,5,6,7-tetrahydrothieno[2,3-c]pyridine-3-carboxamide]
< 25 nM | < 25 nM | < 25 nM | < 25 nM | Cc1ccc(-n2nc(C(C)(C)C)cc2NC(=O)c2csc3c2CCN(Cc2cnc4[nH]ncc4c2)C3)cc1 [Example 75, 6-((1H-pyrazolo[3,4-b]pyridin-5-yl)methyl)-N-(3-(tert-butyl)-1-(p-tolyl)-1H-pyrazol-5-yl)-4,5,6,7-tetrahydrothieno[2,3-c]pyridine-3-carboxamide]
< 25 nM | 25 to 50 nM | < 25 nM | < 25 nM | O=C(Nc1cc(F)cc(C(F)(F)F)c1)c1csc2c1CCN(Cc1cnc3[nH]ccc3c1)C2 [Example 73, 6-((1H-pyrrolo[2,3-b]pyridin-5-yl)methyl)-N-(3-fluoro-5-(trifluoromethyl)phenyl)-4,5,6,7-tetrahydrothieno[2,3-c]pyridine-3-carboxamide]
< 25 nM | < 25 nM | < 25 nM | 25 to 50 nM | Cn1nc(C(C)(C)C)cc1NC(=O)c1csc2c1CCN(Cc1cnc3[nH]ccc3c1)C2 [Example 70, 6-((1H-pyrrolo[2,3-b]pyridin-5-yl)methyl)-N-(3-(tert-butyl)-1-methyl-1H-pyrazol-5-yl)-4,5,6,7-tetrahydrothieno[2,3-c]pyridine-3-carboxamide]
< 25 nM | < 25 nM | < 25 nM | < 25 nM | CC(C)(c1cc(NC(=O)c2csc3c2CCN(C(=O)c2cnc4ccccn24)C3)no1)C(F)(F)F [Example 9, 6-(imidazo[1,2-a]pyridine-3-carbonyl)-N-(5-(1,1,1-trifluoro-2-methylpropan-2-yl)isoxazol-3-yl)-4,5,6,7-tetrahydrothieno[2,3-c]pyridine-3-carboxamide]
< 25 nM | < 25 nM | < 25 nM | 25 to 50 nM | CC1c2scc(C(=O)Nc3cccc(C(F)(F)F)c3)c2CCN1Cc1cnc2[nH]ccc2c1 (single isomer, unassigned) [Example 106, 6-((1H-pyrrolo[2,3-b]pyridin-5-yl)methyl)-7-methyl-N-(3-(trifluoromethyl)phenyl)-4,5,6,7-tetrahydrothieno[2,3-c]pyridine-3-carboxamide]
< 25 nM | < 25 nM | < 25 nM | < 25 nM | Cc1cn(-c2cc(NC(=O)c3csc4c3CCN(C(=O)c3cnc5ccccn35)C4)cc(C(F)(F)F)c2)cn1 [Example 74, 6-(imidazo[1,2-a]pyridine-3-carbonyl)-N-(3-(4-methyl-1H-imidazol-1-yl)-5-(trifluoromethyl)phenyl)-4,5,6,7-tetrahydrothieno[2,3-c]pyridine-3-carboxamide]
< 25 nM | < 25 nM | < 25 nM | < 25 nM | O=C(Nc1cccc(OC(F)(F)F)c1)c1csc2c1CCN(Cc1cnc3[nH]ncc3c1)C2 [Example 66, 6-((1H-pyrazolo[3,4-b]pyridin-5-yl)methyl)-N-(3-(trifluoromethoxy)phenyl)-4,5,6,7-tetrahydrothieno[2,3-c]pyridine-3-carboxamide]
< 25 nM | < 25 nM | < 25 nM | < 25 nM | CC(C)(C)c1cc(NC(=O)c2csc3c2CCN(Cc2cnc4[nH]ncc4c2)C3)on1 [Example 133, 6-((1H-pyrazolo[3,4-b]pyridin-5-yl)methyl)-N-(3-(tert-butyl)isoxazol-5-yl)-4,5,6,7-tetrahydrothieno[2,3-c]pyridine-3-carboxamide]
< 25 nM | < 25 nM | < 25 nM | – | O=C(Nc1cc(CN2CCCC2)cc(C(F)(F)F)c1)c1csc2c1CCN(C(=O)c1cnc3ccccn13)C2 [Example 11]

The remaining lines, values behind:

Structure (SMILES) | Ki (DDR1 [1]) | Ki (DDR2 [2]) | IC50 (DDR1 [3]) | IC50 (DDR2 [4])
O=C(Nc1ccc(OC2CCOC2)c(C(F)(F)F)c1)c1csc2c1CCN(C(=O)c1cnc3ccccn13)C2 (stereo not shown) [Example 12, 6-(imidazo[1,2-a]pyridine-3-carbonyl)-N-(4-((tetrahydrofuran-3-yl)oxy)-3-(trifluoromethyl)phenyl)-4,5,6,7-tetrahydrothieno[2,3-c]pyridine-3-carboxamide] | < 25 nM | < 25 nM | < 25 nM | < 25 nM
O=C(Nc1cc(CN2CCOCC2)cc(C(F)(F)F)c1)c1csc2c1CCN(C(=O)c1cnc3ccccn13)C2 [Example 20, 6-(imidazo[1,2-a]pyridine-3-carbonyl)-N-(3-(morpholinomethyl)-5-(trifluoromethyl)phenyl)-4,5,6,7-tetrahydrothieno[2,3-c]pyridine-3-carboxamide] | < 25 nM | < 25 nM | < 25 nM | < 25 nM
O=C(Nc1cccc(C(F)(F)F)c1)c1csc2c1CCN(C(=O)c1cnn3ccncc13)C2 [Example 93, 6-(pyrazolo[1,5-a]pyrazine-3-carbonyl)-N-(3-(trifluoromethyl)phenyl)-4,5,6,7-tetrahydrothieno[2,3-c]pyridine-3-carboxamide] | < 25 nM | < 25 nM | < 25 nM | < 25 nM
O=C(Nc1cccc(C(F)(F)F)c1)c1csc2c1CCN(C(=O)c1cnc3ccccn13)C2 [Example 7, 6-(imidazo[1,2-a]pyridine-3-carbonyl)-N-(3-(trifluoromethyl)phenyl)-4,5,6,7-tetrahydrothieno[2,3-c]pyridine-3-carboxamide] | < 25 nM | < 25 nM | < 25 nM | < 25 nM
O=C(Nc1cncc(OC(F)F)c1)c1csc2c1CCN(C(=O)c1cnn3ccncc13)C2 [Example 125, N-(5-(difluoromethoxy)pyridin-3-yl)-6-(pyrazolo[1,5-a]pyrazine-3-carbonyl)-4,5,6,7-tetrahydrothieno[2,3-c]pyridine-3-carboxamide] | < 25 nM | < 25 nM | 25 to 50 nM | –
CC(F)(F)c1cncc(NC(=O)c2csc3c2CCN(C(=O)c2cnn4ccncc24)C3)c1 [Example 122, N-(5-(1,1-difluoroethyl)pyridin-3-yl)-6-(pyrazolo[1,5-a]pyrazine-3-carbonyl)-4,5,6,7-tetrahydrothieno[2,3-c]pyridine-3-carboxamide] | < 25 nM | < 25 nM | 50 to 80 nM | –
O=C(Nc1ccc(OCCO)c(C(F)(F)F)c1)c1csc2c1CCN(C(=O)c1cnc3ccccn13)C2 [Example 16, N-(4-(2-hydroxyethoxy)-3-(trifluoromethyl)phenyl)-6-(imidazo[1,2-a]pyridine-3-carbonyl)-4,5,6,7-tetrahydrothieno[2,3-c]pyridine-3-carboxamide] | < 25 nM | < 25 nM | < 25 nM | –
